Test results as given in patent publication US20070128217A1 (priority 2003, published 2007).

Key:
[1] = tested on: control sera (pooled serum of ten healthy LUMC hospital workers; commercial negative donor pooled serum from the Dutch bloodbank); type: binding, human; parameters: Binding of Control serum LUMC to linear peptides / Binding of Control serum Blood-bank to linear peptides / Binding of Control serum LUMC to looped peptides / Binding of Control Serum Blood-Bank to Looped peptides / Binding of Control serum LUMC to linear peptides of the protein M of SARS-CoV Urbani / Binding of Control serum Blood-bank to linear peptides of the protein M of SARS-CoV Urbani / Binding of Control serum LUMC to looped peptides of the protein M of SARS-CoV Urbani / Binding of Control Serum Blood-Bank to Looped peptides of the protein M of SARS-CoV Urbani: unit not given here
[2] = tested on: rabbit serum obtained by immunizing a rabbit with the SARS-CoV strain Frankfurt 1; type: binding; parameters: Binding of a rabbit serum to linear peptides / Binding of a rabbit serum to looped peptides / Rabbit serum linear peptides / Rabbit serum looped peptides / Binding of a rabbit serum to linear peptides of protein N of SARS-CoV Urbani (Rabbit serum linear peptides) / Binding of a rabbit serum to looped/cyclic peptides of protein N of SARS-CoV Urbani (Rabbit serum looped peptides): unit not given here
[3] = tested on: antibodies in sera from SARS patients (sera 1a, 1b, 2, 6, 37, 62, London, SARS-yellow, SARS-green); type: binding, human; parameters: Binding of serum 6 to linear peptides of protein X1 of SARS-CoV Urbani / Binding of serum 37 to linear peptides of protein X1 of SARS-CoV Urbani / Binding of serum 6 to looped/cyclic peptide (PEPSCAN-ELISA) / Binding of serum 37 to looped/cyclic peptide (PEPSCAN-ELISA) / Binding of serum 37 to looped/cyclic peptides of protein X1 of SARS-CoV Urbani / Binding of serum 6 to linear peptides of protein X2 / Binding of serum 37 to linear peptides of protein X2 / Binding of serum 37 to looped/cyclic peptides of protein X2 of SARS-CoV Urbani / Binding of serum 6 to linear peptides of protein M of SARS-CoV Urbani / Binding of serum 37 to linear peptides of protein M of SARS-CoV Urbani / Binding of serum 6 to looped/cyclic peptides of protein M of SARS-CoV Urbani / Binding of serum 37 to looped/cyclic peptides of protein M of SARS-CoV Urbani / Binding of serum 6 to linear peptides of protein X3 of SARS-CoV Urbani / Binding of serum 37 to linear peptides of protein X3 of SARS-CoV Urbani / Binding of serum 37 to looped/cyclic peptides of protein X3 of SARS-CoV Urbani / Binding of serum 6 to linear peptides of protein X4 of SARS-CoV Urbani / Binding of serum 37 to linear peptides of protein X4 of SARS-CoV Urbani / Binding of serum 37 to looped/cyclic peptides of protein X4 of SARS-CoV Urbani / Binding of serum 6 to linear peptides of protein X5 of SARS-CoV Urbani / Binding of serum 37 to linear peptides of protein X5 of SARS-CoV Urbani / Binding of serum 37 to looped/cyclic peptides of protein X5 of SARS-CoV Urbani / Binding of serum 6 to linear peptides of protein N of SARS-CoV Urbani / Binding of serum 37 to linear peptides of protein N of SARS-CoV Urbani / Binding of serum 6 to linear peptide (PEPSCAN-ELISA) / Binding of serum 1a to looped/cyclic peptides of protein N of SARS-CoV Urbani / Binding of serum 1b to looped/cyclic peptides of protein N of SARS-CoV Urbani / Binding of serum 2 to looped/cyclic peptides of protein N of SARS-CoV Urbani / Binding of serum 6 to looped/cyclic peptides of protein N of SARS-CoV Urbani / Binding of serum 37 to looped/cyclic peptides of protein N of SARS-CoV Urbani / Binding of serum 62 to looped/cyclic peptides of protein N of SARS-CoV Urbani / Binding of serum London to looped/cyclic peptides of protein N of SARS-CoV Urbani / Binding of serum SARS-green to looped/cyclic peptides of protein N of SARS-CoV Urbani: unit not given here

TTVYHTTVSQIQLSL
Binding of Control Serum Blood-Bank to Looped peptides [1]: 0.6
Binding of Control serum Blood-bank to linear peptides [1]: 0.6
Binding of Control serum LUMC to linear peptides [1]: 0.7
Binding of Control serum LUMC to looped peptides [1]: 0.5

IANACIVGLMWLSYF
Rabbit serum linear peptides [2]: 0.1
Rabbit serum looped peptides [2]: 0.0

GFQFIGNLLLLFVTI
Binding of a rabbit serum to linear peptides [2]: 0.9
Binding of a rabbit serum to looped peptides [2]: 0.5

EELKQLLEQWNLVIG
Rabbit serum linear peptides [2]: 0.4
Rabbit serum looped peptides [2]: 0.4

VQQELYSPLFLIVAA
Binding of serum 1a to linear peptides of protein X4 of SARS-CoV Urbani [3]: 0.7
Binding of serum 1a to looped/cyclic peptides of protein X4 of SARS-CoV Urbani [3]: 0.8
Binding of serum 1b to linear peptides of protein X4 of SARS-CoV Urbani [3]: 0.6
Binding of serum 1b to looped/cyclic peptides of protein X4 of SARS-CoV Urbani [3]: 0.5
Binding of serum 2 to linear peptides of protein X4 of SARS-CoV Urbani [3]: 0.6
Binding of serum 2 to looped/cyclic peptides of protein X4 of SARS-CoV Urbani [3]: 0.7
Binding of serum 6 to linear peptides of protein X4 of SARS-CoV Urbani [3]: 0.9
Binding of serum 6 to looped/cyclic peptides of protein X4 of SARS-CoV Urbani [3]: 0.5
Binding of serum 37 to linear peptides of protein X4 of SARS-CoV Urbani [3]: 0.7
Binding of serum 37 to looped/cyclic peptides of protein X4 of SARS-CoV Urbani [3]: 0.7
Binding of serum 62 to linear peptides of protein X4 of SARS-CoV Urbani [3]: 0.7
Binding of serum 62 to looped/cyclic peptides of protein X4 of SARS-CoV Urbani [3]: 0.7
Binding of serum London to linear peptides of protein X4 of SARS-CoV Urbani [3]: 0.9
Binding of serum London to looped/cyclic peptides of protein X4 of SARS-CoV Urbani [3]: 0.3
Binding of serum SARS-green to linear peptides of protein X4 of SARS-CoV Urbani [3]: 0.6
Binding of serum SARS-green to looped/cyclic peptides of protein X4 of SARS-CoV Urbani [3]: 0.4
Binding of serum SARS-yellow to linear peptides of protein X4 of SARS-CoV Urbani [3]: 0.5
Binding of serum SARS-yellow to looped/cyclic peptides of protein X4 of SARS-CoV Urbani [3]: 0.8
Recognition of the peptide by sera of SARS-CoV infected individuals, and form (linear, looped/cyclic) in which it is recognized [3]: recognized in looped/cyclic form
Binding of Control Serum Blood-Bank to Looped peptides [1]: 0.7
Binding of Control serum Blood-bank to linear peptides [1]: 0.6
Binding of Control serum LUMC to linear peptides [1]: 0.5
Binding of Control serum LUMC to looped peptides [1]: 0.6

ITVEELKQLLEQWNL
Recognition of the peptide by the rabbit serum [2]: recognized

TVEELKQLLEQWNLV
Recognition of the peptide by the rabbit serum [2]: recognized

TGTLIVNSVLLPLAF
Binding of serum 1a to linear peptides of protein E of SARS-CoV Urbani [3]: 0.7
Binding of serum 1b to linear peptides of protein E of SARS-CoV Urbani [3]: 0.5
Binding of serum 2 to linear peptides of protein E of SARS-CoV Urbani [3]: 0.3
Binding of serum 6 to linear peptides of protein E of SARS-CoV Urbani [3]: 0.6
Binding of serum 37 to linear peptides of protein E of SARS-CoV Urbani [3]: 0.7
Binding of serum 62 to linear peptides of protein E of SARS-CoV Urbani [3]: 0.6
Binding of serum London to linear peptides of protein E of SARS-CoV Urbani [3]: 0.4
Binding of serum SARS-green to linear peptides of protein E of SARS-CoV Urbani [3]: 0.4
Binding of serum SARS-yellow to linear peptides of protein E of SARS-CoV Urbani [3]: 0.2

HLRMAGHPLGRCDIK
Rabbit serum linear peptides [2]: 0.0
Rabbit serum looped peptides [2]: 0.5

IGVAFLAVPQSATKI
Binding of Control Serum Blood-Bank to Looped peptides [1]: 0.5
Binding of Control serum Blood-bank to linear peptides [1]: 0.8
Binding of Control serum LUMC to linear peptides [1]: 0.8
Binding of Control serum LUMC to looped peptides [1]: 0.5

SLTSLLKTHRMCKYT
Binding of serum 1a to linear peptides of protein X2 [3]: 0.8
Binding of serum 1a to looped/cyclic peptides of protein X2 of SARS-CoV Urbani [3]: 0.3
Binding of serum 1b to linear peptides of protein X2 [3]: 0.4
Binding of serum 1b to looped/cyclic peptides of protein X2 of SARS-CoV Urbani [3]: 0.3
Binding of serum 2 to linear peptides of protein X2 [3]: 0.4
Binding of serum 2 to looped/cyclic peptides of protein X2 of SARS-CoV Urbani [3]: 0.1
Binding of serum 6 to linear peptides of protein X2 [3]: 0.4
Binding of serum 6 to looped/cyclic peptides of protein X2 of SARS-CoV Urbani [3]: 0.2
Binding of serum 37 to linear peptides of protein X2 [3]: 0.3
Binding of serum 37 to looped/cyclic peptides of protein X2 of SARS-CoV Urbani [3]: 0.2
Binding of serum 62 to linear peptides of protein X2 [3]: 0.7
Binding of serum 62 to looped/cyclic peptides of protein X2 of SARS-CoV Urbani [3]: 0.4
Binding of serum London to linear peptides of protein X2 [3]: 0.4
Binding of serum London to looped/cyclic peptides of protein X2 of SARS-CoV Urbani [3]: 0.2
Binding of serum SARS-green to linear peptides of protein X2 [3]: 0.5
Binding of serum SARS-green to looped/cyclic peptides of protein X2 of SARS-CoV Urbani [3]: 0.2
Binding of serum SARS-yellow to linear peptides of protein X2 [3]: 0.3
Binding of serum SARS-yellow to looped/cyclic peptides of protein X2 of SARS-CoV Urbani [3]: 0.3
